{
  "source": "patent US6242564A",
  "about": "(priority 1992, dated 2001)",
  "key": {"[1]": {"tested_on": "T4 antigen (gp 120 receptor) on rat hippocampal membranes", "assay": "Displacement of specific 125I-gp 120 binding to fresh rat hippocampal (brain) membranes", "description": "ETLV-IIIb isolate of HIV was propaged in H9 cells, and the gp 120 was isolated by immunoaffinity chromatography and preparative NaDodSO4 /PAGE. Purified gp 120 was labeled with 125 by the chloramine-T method.\nFresh human, monkey, and rat hippocampus were quickly homogenized (POLYTRON, Brinkmann Instruments) in 100 vol. of ice-cold 50 mM Hepes (pH 7.4). The membranes collected by centrifugation (15,000×g) were washed in the original buffer volume and were used fresh or stored at -70° C. Before use, brain membranes and highly purified T cells were preincubated for 15-30 min in phosphate-buffered saline (PBS). Preincubated membranes derived from 2 mg (initial we weight) of brain (α100 μg of protein) were incubated with 28,000 cpm of 125I -gp 120 for 1 hour at 37° C. in 200 μl (final volume) of 50 mM Hepes containing 0.1% bovine serum albumin and the peptidase inhibitors bacitracin (0.005%), aprotinin (0.005%), leupeptin (0.001%), and chymostatin (0.001%). Incubations were rapidly vacuum-filtered and counted to determine the receptor-bound material.\nEach determination was performed in triplicate; the results of one experiment, which was performed three times with similar results, is shown. Specific binding (FIG. 2b) displaceable by 10 μg/ml of OKT4 and 4A ranged between 27 and 85% of total binding, which was 2,201±74 cpm in the experiment shown."}, "[2]": {"tested_on": "HTLV-III virus (HIV)", "assay": "Blockade of viral infection of human T cells (reverse transcriptase activity)", "assay_type": "cell-based", "conditions": "for Rank order of potencies in inhibiting receptor binding and viral infectivity: FIGS. 2c, 3", "description": "The treated cells were then panned on a plastic Petri dish that was coated with goat [F(ab')2 ] anti-mouse immunoglobulin (Sero Lab, Eastbury, Mass.) for 20 min at 4° C. The nonadherent cells were then removed, washed, and analyzed for reactivity by flow cytometry. […] Cells were then cultured with phytohemagglutinin (1 μg/ml) for 72 hrs and exposed to HIV as described below. Infected cells were phenotypically characterized when cytotoxicity assays were performed.\nThe HTLV-III virus used for infection was isolated from an interleukin 2 (IL-2)-dependent cultured T-cell line established from fresh AIDS patient material and passaged into HuT 78, permissive IL-2-independent cell line.\nEach determination was performed in duplicate."}, "[3]": {"biological_target": "HIV viral receptors, such as T4 (Homo sapiens, UniProt P01730)", "assay": "General statements of receptor binding / activity, test not specified"}, "[4]": {"tested_on": "HIV", "conditions": "in vitro; cited from earlier work"}, "[5]": {"tested_on": "gp 120", "conditions": "in vitro; cited from earlier work"}},
  "data": [
    {"compound": "C[C@H](N)C(=O)N[C@@H](CO)C(=O)N[C@H](C(=O)N[C@H](C(=O)N[C@H](C(=O)N[C@@H](CC(N)=O)C(=O)N[C@@H](Cc1ccc(O)cc1)C(=O)N[C@@H](C(N)=O)[C@H](C)O)[C@@H](C)O)[C@@H](C)O)[C@@H](C)O", "note": "[D-[Thr]8-peptide T-amide]", "values": [
      {"measurement": "Loss of receptor binding activity versus peptide T", "setting": "[1]", "result": "≥ 100", "unit": "fold"},
      {"measurement": "Rank order of potencies in inhibiting receptor binding and viral infectivity", "setting": "[2]", "result": "D-[Ala]1 -peptide T-amide>D-[Ala]1 -peptide T>peptide T>D-[Thr]8 -peptide T-amide"},
      {"measurement": "Concentration required for significant inhibition of viral infection, relative to the active peptides", "setting": "[2]; human T cells", "result": 100, "unit": "fold"},
      {"measurement": "Blockade of viral infectivity (in words)", "setting": "[2]; human T cells, FIG. 3", "result": "greatly reduced blockade of viral infection"}
    ]},
    {"compound": "C[C@@H](N)C(=O)N[C@@H](CO)C(=O)N[C@H](C(=O)N[C@H](C(=O)N[C@H](C(=O)N[C@@H](CC(N)=O)C(=O)N[C@@H](Cc1ccc(O)cc1)C(=O)N[C@H](C(N)=O)[C@@H](C)O)[C@@H](C)O)[C@@H](C)O)[C@@H](C)O", "note": "[D-[Ala]1-peptide T-amide]", "values": [
      {"measurement": "Rank order of potencies in inhibiting receptor binding and viral infectivity", "setting": "[2]", "result": "D-[Ala]1 -peptide T-amide>D-[Ala]1 -peptide T>peptide T>D-[Thr]8 -peptide T-amide"}
    ]},
    {"compound": "CYS-THR-THR-ASN-TYR-THR-CYS (CTTNYTC; printed: CYS-THR-THR-ASN-TYR-THR-CYS) [seven amino acid peptide, core with added cysteines]", "values": [
      {"measurement": "Activity (test not specified)", "setting": "[3]", "result": "also active"}
    ]},
    {"compound": "VIP: Vasoactive Intestinal Peptide", "values": [
      {"measurement": "HIV replication in cell culture", "setting": "[4]", "result": "inhibit"},
      {"measurement": "Binding of gp 120 to brain tissue", "setting": "[5]", "result": "inhibit"}
    ]}
  ]
}
